Measurements from the supplement of paper PMC10883282.

Experiments:
Assay in all cases: relative viability vs DMSO control (72 h) (fraction); higher = more viable cells
G401 = test system: G401
In short: (§1)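 Plates held 72 h at 37 °C and 5% CO2 contained sarcoma cell lines seeded in 384-well format to reach 80–90% confluence, plus 2.5 µl of serially diluted compound added after 24 h. Source plate concentrations ran from 10 mM to 0.0002 mM, with 0.1% DMSO as vehicle and a 5 µM positive control. Percent growth from ATPLite readings, averaged over up to triplicate wells, gave relative viability. Values were rescaled with 1 as full and 0 as none.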

SK-ES-1 = test system: SK-ES-1
In short: as §1

SW1353 = test system: SW1353
In short: as §1

RD-ES = test system: RD-ES
In short: as §1

SW872 = test system: SW872
In short: as §1

RD = test system: RD
In short: as §1

SK-LMS-1 = test system: SK-LMS-1
In short: as §1

VA-ES-BJ = test system: VA-ES-BJ
In short: as §1

SW684 = test system: SW684
In short: as §1

MES-SA = test system: MES-SA
In short: as §1

KHOS-NP = test system: KHOS-NP
In short: as §1

HT1080 = test system: HT1080
In short: as §1

COc1cc(Nc2ncc(F)c(Nc3ccc4c(n3)N(COP(=O)(O)O)C(=O)C(C)(C)O4)n2)cc(OC)c1OC [Fostamatinib]
Settings | relative viability
G401, 0.00017 µM | 0.9887
G401, 0.00051 µM | 1.01
G401, 0.00152 µM | 1.03
G401, 0.00457 µM | 1.07
G401, 0.01372 µM | 1.004
G401, 0.04115 µM | 1.05
G401, 0.1235 µM | 0.986
G401, 0.3704 µM | 0.962
G401, 1.111 µM | 0.75
G401, 3.333 µM | 0.212
G401, 10 µM | 0.0346
HT1080, 0.00017 µM | 1.06
HT1080, 0.00051 µM | 1.07
HT1080, 0.00152 µM | 1.08
HT1080, 0.00457 µM | 1.07
HT1080, 0.01372 µM | 1.06
HT1080, 0.04115 µM | 1.06
HT1080, 0.1235 µM | 1.09
HT1080, 0.3704 µM | 1.101
HT1080, 1.111 µM | 1.06
HT1080, 3.333 µM | 0.937
HT1080, 10 µM | 0.658
KHOS-NP, 0.00017 µM | 1.09
KHOS-NP, 0.00051 µM | 1.08
KHOS-NP, 0.00152 µM | 1.1
KHOS-NP, 0.00457 µM | 1.091
KHOS-NP, 0.01372 µM | 1.07
KHOS-NP, 0.04115 µM | 1.089
KHOS-NP, 0.1235 µM | 1.09
KHOS-NP, 0.3704 µM | 1.05
KHOS-NP, 1.111 µM | 0.98
KHOS-NP, 3.333 µM | 0.64
KHOS-NP, 10 µM | 0.278
MES-SA, 0.00017 µM | 0.904
MES-SA, 0.00051 µM | 0.94
MES-SA, 0.00152 µM | 0.932
MES-SA, 0.00457 µM | 0.921
MES-SA, 0.01372 µM | 0.943
MES-SA, 0.04115 µM | 0.931
MES-SA, 0.1235 µM | 0.853
MES-SA, 0.3704 µM | 0.768
MES-SA, 1.111 µM | 0.861
MES-SA, 3.333 µM | 0.332
MES-SA, 10 µM | 0.043
RD, 0.00017 µM | 1.09
RD, 0.00051 µM | 1.1
RD, 0.00152 µM | 1.11
RD, 0.00457 µM | 1.1
RD, 0.01372 µM | 1.11
RD, 0.04115 µM | 1.13
RD, 0.1235 µM | 1.07
RD, 0.3704 µM | 0.991
RD, 1.111 µM | 0.96
RD, 3.333 µM | 0.535
RD, 10 µM | 0.457
RD-ES, 0.00017 µM | 0.9556
RD-ES, 0.00051 µM | 0.964
RD-ES, 0.00152 µM | 0.9726
RD-ES, 0.00457 µM | 0.958
RD-ES, 0.01372 µM | 0.972
RD-ES, 0.04115 µM | 0.9768
RD-ES, 0.1235 µM | 0.943
RD-ES, 0.3704 µM | 0.792
RD-ES, 1.111 µM | 0.715
RD-ES, 3.333 µM | 0.484
RD-ES, 10 µM | 0.144
SK-ES-1, 0.00017 µM | 1.01
SK-ES-1, 0.00051 µM | 1.04
SK-ES-1, 0.00152 µM | 1.03
SK-ES-1, 0.00457 µM | 1.049
SK-ES-1, 0.01372 µM | 1.01
SK-ES-1, 0.04115 µM | 0.986
SK-ES-1, 0.1235 µM | 0.813
SK-ES-1, 0.3704 µM | 0.602
SK-ES-1, 1.111 µM | 0.831
SK-ES-1, 3.333 µM | 0.292
SK-ES-1, 10 µM | 0.0769
SK-LMS-1, 0.00017 µM | 1.06
SK-LMS-1, 0.00051 µM | 1.03
SK-LMS-1, 0.00152 µM | 1.05
SK-LMS-1, 0.00457 µM | 1.05
SK-LMS-1, 0.01372 µM | 1.03
SK-LMS-1, 0.04115 µM | 1.029
SK-LMS-1, 0.1235 µM | 0.897
SK-LMS-1, 0.3704 µM | 0.819
SK-LMS-1, 1.111 µM | 0.769
SK-LMS-1, 3.333 µM | 0.618
SK-LMS-1, 10 µM | 0.403
SW684, 0.00017 µM | 1.14
SW684, 0.00051 µM | 1.17
SW684, 0.00152 µM | 1.15
SW684, 0.00457 µM | 1.17
SW684, 0.01372 µM | 1.13
SW684, 0.04115 µM | 1.18
SW684, 0.1235 µM | 1.09
SW684, 0.3704 µM | 1.03
SW684, 1.111 µM | 0.877
SW684, 3.333 µM | 0.618
SW684, 10 µM | 0.481
SW872, 0.00017 µM | 1.09
SW872, 0.00051 µM | 1.07
SW872, 0.00152 µM | 1.08
SW872, 0.00457 µM | 1.09
SW872, 0.01372 µM | 1.08
SW872, 0.04115 µM | 1.05
SW872, 0.1235 µM | 0.977
SW872, 0.3704 µM | 0.795
SW872, 1.111 µM | 0.617
SW872, 3.333 µM | 0.267
SW872, 10 µM | 0.202
SW1353, 0.00017 µM | 0.996
SW1353, 0.00051 µM | 0.997
SW1353, 0.00152 µM | 0.997
SW1353, 0.00457 µM | 1.01
SW1353, 0.01372 µM | 0.9999
SW1353, 0.04115 µM | 0.965
SW1353, 0.1235 µM | 0.8997
SW1353, 0.3704 µM | 0.773
SW1353, 1.111 µM | 0.6
SW1353, 3.333 µM | 0.296
SW1353, 10 µM | 0.256
VA-ES-BJ, 0.00017 µM | 1.05
VA-ES-BJ, 0.00051 µM | 1.06
VA-ES-BJ, 0.00152 µM | 1.06
VA-ES-BJ, 0.00457 µM | 1.04
VA-ES-BJ, 0.01372 µM | 1.04
VA-ES-BJ, 0.04115 µM | 1.06
VA-ES-BJ, 0.1235 µM | 1.01
VA-ES-BJ, 0.3704 µM | 0.888
VA-ES-BJ, 1.111 µM | 0.727
VA-ES-BJ, 3.333 µM | 0.366
VA-ES-BJ, 10 µM | 0.164
